What was measured:
[1] = molecular target: T1, PtTPS17 (Populus trichocarpa, UniProt A0A0S1TFB5); assay: GC-MS product analysis; type: biochemical; settings: 50 µM GGPP, 5 mM MgCl2, pH 7.5, 25 °C, 2 h; product ent-CPP detected as copalol
T1 construct: N-terminally truncated (delta 65 aa, transit peptide removed), pET200 (N-terminal His tag), E. coli BL21(DE3), partially purified
T1 sequence (A0A0S1TFB5 66-795): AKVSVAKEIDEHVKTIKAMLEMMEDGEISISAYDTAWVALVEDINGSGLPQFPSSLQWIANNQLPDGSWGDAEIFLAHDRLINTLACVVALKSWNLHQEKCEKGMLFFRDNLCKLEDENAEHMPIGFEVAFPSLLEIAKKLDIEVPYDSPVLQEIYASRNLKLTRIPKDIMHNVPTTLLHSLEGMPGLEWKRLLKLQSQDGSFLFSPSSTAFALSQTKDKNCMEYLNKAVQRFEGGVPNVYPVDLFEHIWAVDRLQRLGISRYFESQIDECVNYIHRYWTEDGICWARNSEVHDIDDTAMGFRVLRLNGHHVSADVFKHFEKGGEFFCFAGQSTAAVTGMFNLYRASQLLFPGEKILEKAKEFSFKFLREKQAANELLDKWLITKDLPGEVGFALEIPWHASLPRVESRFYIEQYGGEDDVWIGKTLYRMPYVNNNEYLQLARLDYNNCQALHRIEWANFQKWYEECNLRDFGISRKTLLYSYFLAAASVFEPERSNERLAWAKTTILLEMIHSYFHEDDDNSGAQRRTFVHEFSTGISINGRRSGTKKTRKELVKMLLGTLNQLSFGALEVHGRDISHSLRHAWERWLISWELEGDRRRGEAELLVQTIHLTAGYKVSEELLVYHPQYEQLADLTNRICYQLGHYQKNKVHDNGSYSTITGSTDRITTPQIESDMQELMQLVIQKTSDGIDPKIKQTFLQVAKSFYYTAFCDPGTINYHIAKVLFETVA

[2] = molecular target: T2, PtTPS19 (Populus trichocarpa, UniProt A0A0S1TJ32); assay: GC-MS product analysis, ent-CPP made in situ; type: biochemical; settings: ent-CPP from GGPP by coupled PtTPS17; 5 mM MgCl2, pH 7.5, 25 °C, 2 h
T2 construct: N-terminally truncated (delta 42 aa, transit peptide removed), pET200 (N-terminal His tag), E. coli BL21(DE3), partially purified
T2 sequence (A0A0S1TJ32 entry or part of it): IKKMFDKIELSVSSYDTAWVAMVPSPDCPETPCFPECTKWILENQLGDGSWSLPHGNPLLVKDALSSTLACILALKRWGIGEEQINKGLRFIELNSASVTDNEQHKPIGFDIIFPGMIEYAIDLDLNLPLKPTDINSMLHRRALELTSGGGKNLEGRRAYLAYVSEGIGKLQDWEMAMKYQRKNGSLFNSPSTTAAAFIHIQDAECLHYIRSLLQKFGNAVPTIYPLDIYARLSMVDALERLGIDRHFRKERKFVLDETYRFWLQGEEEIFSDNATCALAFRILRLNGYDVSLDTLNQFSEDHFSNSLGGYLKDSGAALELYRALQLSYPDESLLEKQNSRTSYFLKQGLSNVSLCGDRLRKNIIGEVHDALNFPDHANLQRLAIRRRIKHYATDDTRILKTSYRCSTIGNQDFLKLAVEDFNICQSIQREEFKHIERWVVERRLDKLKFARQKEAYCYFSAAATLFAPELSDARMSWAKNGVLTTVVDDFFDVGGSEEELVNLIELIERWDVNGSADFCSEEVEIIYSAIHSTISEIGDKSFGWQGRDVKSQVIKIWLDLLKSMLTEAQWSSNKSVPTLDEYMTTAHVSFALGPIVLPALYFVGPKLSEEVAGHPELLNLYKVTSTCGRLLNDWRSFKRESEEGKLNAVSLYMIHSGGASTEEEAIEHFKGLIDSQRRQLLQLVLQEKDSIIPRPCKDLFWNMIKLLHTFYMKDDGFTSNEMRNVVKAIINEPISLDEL

SMILES	GC-MS product analysis [1]	GC-MS product analysis, ent-CPP made in situ [2]
CC(C)=CCC/C(C)=C/CC/C(C)=C/CC/C(C)=C/COP(=O)(O)OP(=O)(O)O [(E,E,E)-GGPP]	When PtTPS17 was incubated with GGPP, copalol was detected	
C=C1CC[C@@H]2C(C)(C)CCC[C@@]2(C)[C@@H]1CC/C(C)=C/COP(=O)(O)OP(=O)(O)O [ent-CPP]		PtTPS19 converted ent-CPP into ent-kaurene
